Reference: patent US10905123B2, “Herbicidal compounds” (Syngenta Participations AG, priority 2015, dated 2021)

Columns and labels:
Format in all cases: in vivo
Details in all cases: Rate 1000 g/ha; evaluated after 13 days
[1] = tested on: Abutilon threophrasti (ABUTH); test: B2a post-emergence herbicidal activity
Experimental: (§1) Seeds of a variety of test species were sown in standard soil in pots: Amaranthus retroflexus (AMARE), Setaria faberi (SETFA), Zea mays (ZEAMX), Abutilon threophrasti (ABUTH), Echinochloa crus-galli (ECHCG), Lolium perenne (LOLPE). After 8 days cultivation (post-emergence) under controlled conditions in a glasshouse (at 24/16° C., day/night; 14 hours light; 65% humidity), the plants were sprayed with an aqueous spray solution derived from the formulation of the technical active ingredient in acetone/I water (50:50) solution containing 0.5% Tween 20 (polyoxyethelyene sorbitan monolaurate, CAS RN 9005-64-5). The test plants were then grown in a glasshouse under controlled conditions (at 24/16° C., day/night; 14 hours light; 65% humidity) and watered twice daily. After 13 days, the test was evaluated (5=total damage to plant; 0=no damage to plant).

Zea mays (ZEAMX) [2] = test: B2a post-emergence herbicidal activity
Experimental: as §1

[3] = tested on: Amaranthus retroflexus (AMARE); test: B2a post-emergence herbicidal activity
Experimental: as §1

Setaria faberi (SETFA) [4] = test: B2a post-emergence herbicidal activity
Experimental: as §1

[5] = tested on: Echinochloa crus-galli (ECHCG); test: B2a post-emergence herbicidal activity
Experimental: as §1

Lolium perenne (LOLPE) [6] = test: B2a post-emergence herbicidal activity
Experimental: as §1

[7] = tested on: Abutilon threophrasti (ABUTH); test: B1a pre-emergence herbicidal activity
Experimental: as §1, with “After” for “After 8 days”, “for one day (pre-emergence)” for “(post-emergence)”, “acetone/water” for “acetone/I water”, “plant). Results are shown below in Table 4” for “plant).”

Zea mays (ZEAMX) [8] = test: B1a pre-emergence herbicidal activity
Experimental: as §1, with “After” for “After 8 days”, “for one day (pre-emergence)” for “(post-emergence)”, “acetone/water” for “acetone/I water”, “plant). Results are shown below in Table 4” for “plant).”

[9] = tested on: Amaranthus retroflexus (AMARE); test: B1a pre-emergence herbicidal activity
Experimental: as §1, with “After” for “After 8 days”, “for one day (pre-emergence)” for “(post-emergence)”, “acetone/water” for “acetone/I water”, “plant). Results are shown below in Table 4” for “plant).”

Setaria faberi (SETFA) [10] = test: B1a pre-emergence herbicidal activity
Experimental: as §1, with “After” for “After 8 days”, “for one day (pre-emergence)” for “(post-emergence)”, “acetone/water” for “acetone/I water”, “plant). Results are shown below in Table 4” for “plant).”

[11] = tested on: Echinochloa crus-galli (ECHCG); test: B1a pre-emergence herbicidal activity
Experimental: as §1, with “After” for “After 8 days”, “for one day (pre-emergence)” for “(post-emergence)”, “acetone/water” for “acetone/I water”, “plant). Results are shown below in Table 4” for “plant).”

Lolium perenne (LOLPE) [12] = test: B1a pre-emergence herbicidal activity
Experimental: as §1, with “After” for “After 8 days”, “for one day (pre-emergence)” for “(post-emergence)”, “acetone/water” for “acetone/I water”, “plant). Results are shown below in Table 4” for “plant).”

[13] = tested on: Alopecurus myosuroides (ALOMY); test: B1 pre-emergence herbicidal activity
Experimental: as §1, with “Triticum aestivium (TRZAW), Oryza sativa (ORYSA), Avena fatua (AVEFA), Alopecurus myosuroides (ALOMY),” for “Amaranthus retroflexus (AMARE), Setaria faberi (SETFA), Zea mays (ZEAMX), Abutilon threophrasti (ABUTH),”, “After” for “After 8 days”, “for one day (pre-emergence)” for “(post-emergence)”, “acetone/water” for “acetone/I water”

Oryza sativa (ORYSA) [14] = test: B1 pre-emergence herbicidal activity
Experimental: as §1, with “Triticum aestivium (TRZAW), Oryza sativa (ORYSA), Avena fatua (AVEFA), Alopecurus myosuroides (ALOMY),” for “Amaranthus retroflexus (AMARE), Setaria faberi (SETFA), Zea mays (ZEAMX), Abutilon threophrasti (ABUTH),”, “After” for “After 8 days”, “for one day (pre-emergence)” for “(post-emergence)”, “acetone/water” for “acetone/I water”

[15] = tested on: Triticum aestivium (TRZAW); test: B1 pre-emergence herbicidal activity
Experimental: as §1, with “Triticum aestivium (TRZAW), Oryza sativa (ORYSA), Avena fatua (AVEFA), Alopecurus myosuroides (ALOMY),” for “Amaranthus retroflexus (AMARE), Setaria faberi (SETFA), Zea mays (ZEAMX), Abutilon threophrasti (ABUTH),”, “After” for “After 8 days”, “for one day (pre-emergence)” for “(post-emergence)”, “acetone/water” for “acetone/I water”

[16] = tested on: Echinochloa crus-galli (ECHCG); test: B1 pre-emergence herbicidal activity
Experimental: as §1, with “Triticum aestivium (TRZAW), Oryza sativa (ORYSA), Avena fatua (AVEFA), Alopecurus myosuroides (ALOMY),” for “Amaranthus retroflexus (AMARE), Setaria faberi (SETFA), Zea mays (ZEAMX), Abutilon threophrasti (ABUTH),”, “After” for “After 8 days”, “for one day (pre-emergence)” for “(post-emergence)”, “acetone/water” for “acetone/I water”

Lolium perenne (LOLPE) [17] = test: B1 pre-emergence herbicidal activity
Experimental: as §1, with “Triticum aestivium (TRZAW), Oryza sativa (ORYSA), Avena fatua (AVEFA), Alopecurus myosuroides (ALOMY),” for “Amaranthus retroflexus (AMARE), Setaria faberi (SETFA), Zea mays (ZEAMX), Abutilon threophrasti (ABUTH),”, “After” for “After 8 days”, “for one day (pre-emergence)” for “(post-emergence)”, “acetone/water” for “acetone/I water”

Avena fatua (AVEFA) [18] = test: B1 pre-emergence herbicidal activity
Experimental: as §1, with “Triticum aestivium (TRZAW), Oryza sativa (ORYSA), Avena fatua (AVEFA), Alopecurus myosuroides (ALOMY),” for “Amaranthus retroflexus (AMARE), Setaria faberi (SETFA), Zea mays (ZEAMX), Abutilon threophrasti (ABUTH),”, “After” for “After 8 days”, “for one day (pre-emergence)” for “(post-emergence)”, “acetone/water” for “acetone/I water”

[19] = tested on: Alopecurus myosuroides (ALOMY); test: B2 post-emergence herbicidal activity
Experimental: as §1, with “Triticum aestivium (TRZAW), Oryza sativa (ORYSA), Avena fatua (AVEFA), Alopecurus myosuroides (ALOMY),” for “Amaranthus retroflexus (AMARE), Setaria faberi (SETFA), Zea mays (ZEAMX), Abutilon threophrasti (ABUTH),”, “acetone/water” for “acetone/I water”

Oryza sativa (ORYSA) [20] = test: B2 post-emergence herbicidal activity
Experimental: as §1, with “Triticum aestivium (TRZAW), Oryza sativa (ORYSA), Avena fatua (AVEFA), Alopecurus myosuroides (ALOMY),” for “Amaranthus retroflexus (AMARE), Setaria faberi (SETFA), Zea mays (ZEAMX), Abutilon threophrasti (ABUTH),”, “acetone/water” for “acetone/I water”

[21] = tested on: Triticum aestivium (TRZAW); test: B2 post-emergence herbicidal activity
Experimental: as §1, with “Triticum aestivium (TRZAW), Oryza sativa (ORYSA), Avena fatua (AVEFA), Alopecurus myosuroides (ALOMY),” for “Amaranthus retroflexus (AMARE), Setaria faberi (SETFA), Zea mays (ZEAMX), Abutilon threophrasti (ABUTH),”, “acetone/water” for “acetone/I water”

[22] = tested on: Echinochloa crus-galli (ECHCG); test: B2 post-emergence herbicidal activity
Experimental: as §1, with “Triticum aestivium (TRZAW), Oryza sativa (ORYSA), Avena fatua (AVEFA), Alopecurus myosuroides (ALOMY),” for “Amaranthus retroflexus (AMARE), Setaria faberi (SETFA), Zea mays (ZEAMX), Abutilon threophrasti (ABUTH),”, “acetone/water” for “acetone/I water”

Lolium perenne (LOLPE) [23] = test: B2 post-emergence herbicidal activity
Experimental: as §1, with “Triticum aestivium (TRZAW), Oryza sativa (ORYSA), Avena fatua (AVEFA), Alopecurus myosuroides (ALOMY),” for “Amaranthus retroflexus (AMARE), Setaria faberi (SETFA), Zea mays (ZEAMX), Abutilon threophrasti (ABUTH),”, “acetone/water” for “acetone/I water”

Avena fatua (AVEFA) [24] = test: B2 post-emergence herbicidal activity
Experimental: as §1, with “Triticum aestivium (TRZAW), Oryza sativa (ORYSA), Avena fatua (AVEFA), Alopecurus myosuroides (ALOMY),” for “Amaranthus retroflexus (AMARE), Setaria faberi (SETFA), Zea mays (ZEAMX), Abutilon threophrasti (ABUTH),”, “acetone/water” for “acetone/I water”

Structure (SMILES) | Control of ALOMY after pre-emergence application (damage score 0-5) [13] | Control of ORYSA after pre-emergence application (damage score 0-5) (Oryza sativa (ORYSA) [14]) | Control of TRZAW after pre-emergence application (damage score 0-5) [15] | Control of ECHCG after pre-emergence application (damage score 0-5) [16] | Control of LOLPE after pre-emergence application (damage score 0-5) (Lolium perenne (LOLPE) [17]) | Control of AVEFA after pre-emergence application (damage score 0-5) (Avena fatua (AVEFA) [18]) | Control of ALOMY after post-emergence application (damage score 0-5) [19] | Control of ORYSA after post-emergence application (damage score 0-5) (Oryza sativa (ORYSA) [20]) | Control of TRZAW after post-emergence application (damage score 0-5) [21] | Control of ECHCG after post-emergence application (damage score 0-5) [22] | Control of LOLPE after post-emergence application (damage score 0-5) (Lolium perenne (LOLPE) [23]) | Control of AVEFA after post-emergence application (damage score 0-5) (Avena fatua (AVEFA) [24]) | other results
CCOC(=O)C(=O)N(C)c1cn(-c2cncnc2)nc1C(F)(F)F [Compound A43] | – | – | – | – | – | – | – | – | – | – | – | – | Control of ABUTH after post-emergence application (damage score 0-5) [1]: 2; Control of ZEAMX after post-emergence application (damage score 0-5) (Zea mays (ZEAMX) [2]): 2; Control of AMARE after post-emergence application (damage score 0-5) [3]: 1; Control of SETFA after post-emergence application (damage score 0-5) (Setaria faberi (SETFA) [4]): 1; Control of ECHCG after post-emergence application (damage score 0-5) [5]: 1; Control of LOLPE after post-emergence application (damage score 0-5) (Lolium perenne (LOLPE) [6]): 0; Control of ABUTH after pre-emergence application (damage score 0-5) [7]: 0; Control of ZEAMX after pre-emergence application (damage score 0-5) (Zea mays (ZEAMX) [8]): 0; Control of AMARE after pre-emergence application (damage score 0-5) [9]: 0; Control of SETFA after pre-emergence application (damage score 0-5) (Setaria faberi (SETFA) [10]): 0; Control of ECHCG after pre-emergence application (damage score 0-5) [11]: 0; Control of LOLPE after pre-emergence application (damage score 0-5) (Lolium perenne (LOLPE) [12]): 0
Cc1nn(-c2cncnc2)cc1N(C)C(=O)Nc1c(C)noc1C [Compound A45] | – | – | – | – | – | – | – | – | – | – | – | – | Control of ABUTH after post-emergence application (damage score 0-5) [1]: 0; Control of ZEAMX after post-emergence application (damage score 0-5) (Zea mays (ZEAMX) [2]): 0; Control of AMARE after post-emergence application (damage score 0-5) [3]: 0; Control of SETFA after post-emergence application (damage score 0-5) (Setaria faberi (SETFA) [4]): 0; Control of ECHCG after post-emergence application (damage score 0-5) [5]: 0; Control of LOLPE after post-emergence application (damage score 0-5) (Lolium perenne (LOLPE) [6]): 0; Control of ABUTH after pre-emergence application (damage score 0-5) [7]: 0; Control of ZEAMX after pre-emergence application (damage score 0-5) (Zea mays (ZEAMX) [8]): 0; Control of AMARE after pre-emergence application (damage score 0-5) [9]: 0; Control of SETFA after pre-emergence application (damage score 0-5) (Setaria faberi (SETFA) [10]): 0; Control of ECHCG after pre-emergence application (damage score 0-5) [11]: 0; Control of LOLPE after pre-emergence application (damage score 0-5) (Lolium perenne (LOLPE) [12]): 0
Cc1nn(-c2cncnc2)cc1N(C)C(=O)Nc1ccc(C#N)cc1 [Compound A52] | 0 | 0 | 0 | 0 | 0 | 0 | 0 | 0 | 0 | 0 | 0 | 0 | –
Cc1nn(-c2cncnc2)cc1N(C)C1=NCCCCO1 [Compound A53] | 0 | 0 | 0 | 0 | 0 | 0 | 0 | 0 | 0 | 0 | 1 | 0 | –
C=CCN(C(=O)OC(C)(C)C)c1cn(-c2cncc(F)c2)nc1C [Compound A54] | 0 | 0 | 0 | 0 | 0 | 0 | 1 | 0 | 0 | 1 | 1 | 1 | –
CCN(C(=O)OC(C)(C)C)c1cn(-c2cncc(F)c2)nc1C(F)(F)F [Compound A55] | 0 | 0 | 0 | 0 | 0 | 0 | 0 | 0 | 0 | 0 | 0 | 0 | –
CCN(C(=O)OC(C)(C)C)c1cn(-c2cncnc2)nc1C(F)(F)F [Compound A56] | 0 | 0 | 0 | 1 | 0 | 0 | 1 | 0 | 1 | 1 | 0 | 1 | –
